Laboratory results published in patent US9650340B2, “5-fluoro-N-(pyridin-2-yl)pyridin-2-amine derivatives containing a sulfoximine group” (BAYER PHARMA AKTIENGESELLSCHAFT, priority 2012, dated 2017).

Legend:
CDK2/CycE = biological target: T1, CDK2/CycE (Homo sapiens, UniProt P24941); assay: CDK2/CycE high ATP kinase assay (TR-FRET, 2 mM ATP); format: biochemical; details: Method 2b
T1 construct: GST; purchased ProQinase GmbH (Freiburg, Germany); host or cells: insect cells (Sf9)
Description: 2b. CDK2/CycE High ATP Kinase Assay:
CDK2/CycE-inhibitory activity of compounds of the present invention at 2 mM adenosine-tri-phosphate (ATP) was quantified employing the CDK2/CycE TR-FRET (TR-FRET=Time Resolved Fluorescence Energy Transfer) assay as described in the following paragraphs.
Recombinant fusion proteins of GST and human CDK2 and of GST and human CycE, expressed in insect cells (Sf9) and purified by Glutathion-Sepharose affinity chromatography, were purchase from ProQinase GmbH (Freiburg, Germany). As substrate for the kinase reaction biotinylated peptide biotin-Ttds-[…] (C-terminus in amid form) was used which can be purchased e.g. form the company JERINI peptide technologies (Berlin, Germany).
For the assay 50 nl of a 100 fold concentrated solution of the test compound in DMSO was pipetted into a black low volume 384 well microtiter plate (Greiner Bio-One, Frickenhausen, Germany), 2 μl of a solution of CDK2/CycE in aqueous assay buffer [50 mM Tris/HCl pH 8.0, 10 mM MgCl2, 1.0 mM dithiothreitol, 0.1 mM sodium ortho-vanadate, 0.01% (v/v) Nonidet-P40 (Sigma)] were added and the mixture was incubated for 15 min at 22° C. to allow pre-binding of the test compounds to the enzyme before the start of the kinase reaction. Then the kinase reaction was started by the addition of 3 μl of a solution ATP (3.33 mM=>final conc. in the 5 μl assay volume is 2 mM) and substrate (1.25 μM=>final conc. in the 5 μl assay volume is 0.75 μM) in assay buffer and the resulting mixture was incubated for a reaction time of 25 min at 22° C. The concentration of CDK2/CycE was adjusted depending of the activity of the enzyme lot and was chosen appropriate to have the assay in the linear range, typical concentrations were in the range of 15 ng/ml. The reaction was stopped by the addition of 5 μl of a solution of TR-FRET detection reagents (0.2 μM streptavidine-XL665 [Cisbio Bioassays, Codolet, France] and 1 nM anti-RB(pSer807/pSer811)-antibody from BD Pharmingen [#558389] and 1.2 nM LANCE EU-W1024 labeled anti-mouse IgG antibody [Perkin-Elmer, product no. AD0077, as an alternative a Terbium-cryptate-labeled anti-mouse IgG antibody from Cisbio Bioassays can be used]) in an aqueous EDTA-solution (100 mM EDTA, 0.2% (w/v) bovine serum albumin in 100 mM HEPES/NaOH pH 7.0).
The resulting mixture was incubated 1 h at 22° C. to allow the formation of complex between the phosphorylated biotinylated peptide and the detection reagents. Subsequently the amount of phosphorylated substrate was evaluated by measurement of the resonance energy transfer from the Eu-chelate to the streptavidine-XL. Therefore, the fluorescence emissions at 620 nm and 665 nm after excitation at 350 nm were measured in a TR-FRET reader, e.g. a Rubystar (BMG Labtechnologies, Offenburg, Germany) or a Viewlux (Perkin-Elmer). The ratio of the emissions at 665 nm and at 622 nm was taken as the measure for the amount of phosphorylated substrate.

[1] = test system: DU 145, hormone-independent human prostate carcinoma cells; assay: Proliferation assay, DU145 (crystal violet); format: cell-based; details: Homo sapiens, DU-145, 96 h, DU145, 4 days; read-out: Inhibition of DU145 cell proliferation IC50
Description: Cultivated tumour cells (HeLa, human cervical tumour cells, ATCC CCL-2; NCI-H460, human non-small cell lung carcinoma cells, ATCC HTB-177; A2780, human ovarian carcinoma cells, ECACC #93112519; DU 145, hormone-independent human prostate carcinoma cells, ATCC HTB-81; HeLa-MaTu-ADR, multidrug-resistant human cervical carcinoma cells, EPO-GmbH Berlin; Caco-2, human colorectal carcinoma cells, ATCC HTB-37; B16F10, mouse melanoma cells, ATCC CRL-6475) were plated at a density of 5,000 cells/well (DU145, HeLa-MaTu-ADR), 3,000 cells/well (NCI-H460, HeLa), 2,500 cells/well (A2780), 1,500 cells/well (Caco-2), or 1,000 cells/well (B16F10) in a 96-well multititer plate in 200 μL of their respective growth medium supplemented 10% fetal calf serum. After 24 hours, the cells of one plate (zero-point plate) were stained with crystal violet (see below), while the medium of the other plates was replaced by fresh culture medium (200 μl), to which the test substances were added in various concentrations (0 μM, as well as in the range of 0.001-10 μM; the final concentration of the solvent dimethyl sulfoxide was 0.5%). The cells were incubated for 4 days in the presence of test substances. Cell proliferation was determined by staining the cells with crystal violet: the cells were fixed by adding 20 μl/measuring point of an 11% glutaric aldehyde solution for 15 minutes at room temperature. After three washing cycles of the fixed cells with water, the plates were dried at room temperature. The cells were stained by adding 100 μl/measuring point of a 0.1% crystal violet solution (pH 3.0). After three washing cycles of the stained cells with water, the plates were dried at room temperature. The dye was dissolved by adding 100 μl/measuring point of a 10% acetic acid solution. The extinction was determined by photometry at a wavelength of 595 nm. The change of cell number, in percent, was calculated by normalization of the measured values to the extinction values of the zero-point plate (=0%) and the extinction of the untreated (0 μm) cells (=100%). The IC50 values (inhibitory concentration at 50% of maximal effect) were determined by means of a 4 parameter fit. Non-adherent MOLM-13 human acute myeloid leukemia cells (DSMZ ACC 554) were seeded at a density of 5,000 cells/well in a 96-well multititer plate in 100 μL of growth medium supplemented 10% fetal calf serum. After 24 hours, cell viability of one plate (zero-point plate) was determined with the Cell Titre-Glo Luminescent Cell Viability Assay (Promega), while 50 μL of test compound containing medium was added to the wells of the other plates (final concentrations in the range of 0.001-10 μM and DMSO controls; the final concentration of the solvent dimethyl sulfoxide was 0.5%). Cell viability was assessed after 72-hour exposure with the Cell Titre-Glo Luminescent Cell Viability Assay (Promega).

Compound | IC50 (CDK2/CycE) [nM] | IC50 [1] [nM]
COc1cc(F)ccc1-c1cc(Nc2cc(CS(C)(=N)=O)ccn2)ncc1F (racemic) [Example 1, (rac)-5-Fluoro-4-(4-fluoro-2-methoxyphenyl)-N-{4-[(S-methylsulfonimidoyl)methyl]pyridin-2-yl}pyridin-2-amine] | 5860 | 37
COc1cc(F)ccc1-c1cc(Nc2cc(CS(C)(=N)=O)cc(C)n2)ncc1F (racemic) [Example 4, (rac)-5-Fluoro-4-(4-fluoro-2-methoxyphenyl)-N-{6-methyl-4-[(S-methylsulfonimidoyl)methyl]pyridin-2-yl}pyridin-2-amine] | 1010 | 67
COc1cc(F)ccc1-c1cc(Nc2cc(CS(C)(=N)=O)c(Br)c(C)n2)ncc1F (racemic) [Example 5, (rac)-5-Bromo-N-[5-fluoro-4-(4-fluoro-2-methoxyphenyl)pyridin-2-yl]-6-methyl-4-[(S-methylsulfonimidoyl)methyl]pyridin-2-amine] | 1770 | 110
COc1cc(CS(C)(=N)=O)cc(Nc2cc(-c3ccc(F)cc3OC)c(F)cn2)n1 (racemic) [Example 6, (rac)-5-Fluoro-4-(4-fluoro-2-methoxyphenyl)-N-{6-methoxy-4-[(S-methylsulfonimidoyl)methyl]pyridin-2-yl}pyridin-2-amine] | 84 | 30
COc1cc(F)ccc1-c1cc(Nc2cc(CS(C)(=N)=O)cc(Cl)n2)ncc1F (racemic) [Example 7, (rac)-N-{6-Chloro-4-[(S-methylsulfonimidoyl)methyl]pyridin-2-yl}-5-fluoro-4-(4-fluoro-2-methoxyphenyl)pyridin-2-amine] | 630 | 37
COc1cc(F)ccc1-c1cc(Nc2cc(CS(=N)(=O)CCO)ccn2)ncc1F (racemic) [Example 8, (rac)-2-{S-[(2-{[5-Fluoro-4-(4-fluoro-2-methoxyphenyl)pyridin-2-yl]amino}pyridin-4-yl)methyl]sulfonimidoyl}ethanol] | 4190 | 110
COc1cc(F)ccc1-c1cc(Nc2cc(CS(=N)(=O)CCN)ccn2)ncc1F (racemic) [Example 9, (rac)-N-(4-{[S-(2-Aminoethyl)sulfonimidoyl]methyl}pyridin-2-yl)-5-fluoro-4-(4-fluoro-2-methoxyphenyl)pyridin-2-amine] | 4230 | –

The next lines start with the values.

IC50 (CDK2/CycE) [nM] | IC50 [1] [nM] | Compound
2920 | 110 | CCOC(=O)N=S(C)(=O)Cc1ccnc(Nc2cc(-c3ccc(F)cc3OC)c(F)cn2)c1 (racemic) [Example 11, (rac)-Ethyl{[(2-{[5-fluoro-4-(4-fluoro-2-methoxyphenyl)pyridin-2-yl]amino}pyridin-4-yl)methyl](methyl)oxido-λ^6-sulfanylidene}carbamate]
3070 | 77 | CCNC(=O)N=S(C)(=O)Cc1ccnc(Nc2cc(-c3ccc(F)cc3OC)c(F)cn2)c1 (racemic) [Example 12, (rac)-1-Ethyl-3-{[(2-{[5-fluoro-4-(4-fluoro-2-methoxyphenyl)pyridin-2-yl]amino}pyridin-4-yl)methyl](methyl)oxido-λ^6-sulfanylidene}urea]
– | 41 | COc1cc(F)ccc1-c1cc(Nc2cc(CS(C)(=O)=NC(=O)C(F)(F)F)cc(F)n2)ncc1F (racemic) [Example 18, (rac)-2,2,2-Trifluoro-N-{[(2-fluoro-6-{[5-fluoro-4-(4-fluoro-2-methoxyphenyl)pyridin-2-yl]amino}pyridin-4-yl)methyl](methyl)oxido-λ^6-sulfanylidene}acetamide]
229 | – | COc1cc(F)ccc1-c1cc(Nc2cc(CS(C)(=N)=O)cc(C(F)F)n2)ncc1F (racemic) [Example 31, (rac)-N-{6-(Difluoromethyl)-4-[(S-methylsulfonimidoyl)methyl]pyridin-2-yl}-5-fluoro-4-(4-fluoro-2-methoxyphenyl)pyridin-2-amine]
